Source: ChEMBL document CHEMBL1828590 (J Med Chem, 2011)

What was measured:
[1] = target: T1, Polyamine deacetylase HDAC10 (Homo sapiens, UniProt Q969S8)
T1 sequence (Q969S8 whole entry): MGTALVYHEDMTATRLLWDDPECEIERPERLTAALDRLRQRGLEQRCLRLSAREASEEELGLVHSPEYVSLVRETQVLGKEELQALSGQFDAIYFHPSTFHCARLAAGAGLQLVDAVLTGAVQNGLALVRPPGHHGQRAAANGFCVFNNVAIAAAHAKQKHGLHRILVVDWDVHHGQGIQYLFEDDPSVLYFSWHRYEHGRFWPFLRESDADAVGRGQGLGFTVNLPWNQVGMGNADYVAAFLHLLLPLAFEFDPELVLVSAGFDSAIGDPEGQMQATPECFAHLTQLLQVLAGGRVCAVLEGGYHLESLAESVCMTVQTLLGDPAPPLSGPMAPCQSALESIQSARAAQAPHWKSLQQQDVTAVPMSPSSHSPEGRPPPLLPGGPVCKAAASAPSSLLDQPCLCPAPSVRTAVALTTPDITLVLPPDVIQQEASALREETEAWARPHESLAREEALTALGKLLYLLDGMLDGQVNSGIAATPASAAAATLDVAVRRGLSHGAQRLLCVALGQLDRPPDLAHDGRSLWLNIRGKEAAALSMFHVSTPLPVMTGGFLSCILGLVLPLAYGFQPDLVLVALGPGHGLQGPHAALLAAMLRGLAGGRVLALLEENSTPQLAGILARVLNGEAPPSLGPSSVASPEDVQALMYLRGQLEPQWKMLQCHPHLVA
Description: Competitive inhibition of HDAC10 using KI-104 as substrate by fluorescence assay

Histone deacetylase 2 = Histone deacetylase 2 (Homo sapiens, UniProt Q92769)
Description: Competitive inhibition of HDAC2 using KI-104 as substrate by fluorescence assay

Histone deacetylase 3 = Histone deacetylase 3 (Homo sapiens, UniProt O15379)
Description: Competitive inhibition of HDAC3 using KI-104 as substrate by fluorescence assay

Histone deacetylase 1 [2] = target: T2, Histone deacetylase 1 (Homo sapiens, UniProt Q13547)
Description: Competitive inhibition of HDAC1 using KI-104 as substrate by fluorescence assay

COLO 205 = test: Antiproliferative activity against human COLO205 cells after 96 hrs by celltiter 96 assay; type: functional, cell-based; conditions: COLO 205, 96 h
Histone deacetylase 5 = Histone deacetylase 5 (Homo sapiens, UniProt Q9UQL6)
Description: Competitive inhibition of HDAC5 using KI-104 as substrate by fluorescence assay

Histone deacetylase 9 = Histone deacetylase 9 (Homo sapiens, UniProt Q9UKV0)
Description: Competitive inhibition of HDAC9 using KI-104 as substrate by fluorescence assay

Liver = test: (§1) Half life in mouse liver microsomes; type: ADME, Microsome; conditions: microsomes
Histone deacetylase 1 [3] = target: T2, Histone deacetylase 1; remark: listed apart in the source
Description: Inhibition of full length recombinant HDAC1 using Fluor de Lys as substrate by fluorescence assay

Histone deacetylase 11 = target: T3, Histone deacetylase 11 (Homo sapiens, UniProt Q96DB2)
T3 sequence (Q96DB2 whole entry): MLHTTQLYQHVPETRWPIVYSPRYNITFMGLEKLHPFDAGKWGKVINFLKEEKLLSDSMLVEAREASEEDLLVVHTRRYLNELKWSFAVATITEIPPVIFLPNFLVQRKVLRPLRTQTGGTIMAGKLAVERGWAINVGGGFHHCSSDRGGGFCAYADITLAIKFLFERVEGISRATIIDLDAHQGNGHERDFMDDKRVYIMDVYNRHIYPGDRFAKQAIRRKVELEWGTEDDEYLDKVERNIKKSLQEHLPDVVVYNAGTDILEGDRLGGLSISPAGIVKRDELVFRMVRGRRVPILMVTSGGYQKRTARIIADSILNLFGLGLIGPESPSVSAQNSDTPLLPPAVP
Description: Competitive inhibition of HDAC11 using KI-104 as substrate by fluorescence assay

[4] = Half life in human liver microsomes; type: ADME, Microsome
[5] = target: T4, Protein deacetylase HDAC6 (Homo sapiens, UniProt Q9UBN7)
T4 sequence (Q9UBN7 whole entry): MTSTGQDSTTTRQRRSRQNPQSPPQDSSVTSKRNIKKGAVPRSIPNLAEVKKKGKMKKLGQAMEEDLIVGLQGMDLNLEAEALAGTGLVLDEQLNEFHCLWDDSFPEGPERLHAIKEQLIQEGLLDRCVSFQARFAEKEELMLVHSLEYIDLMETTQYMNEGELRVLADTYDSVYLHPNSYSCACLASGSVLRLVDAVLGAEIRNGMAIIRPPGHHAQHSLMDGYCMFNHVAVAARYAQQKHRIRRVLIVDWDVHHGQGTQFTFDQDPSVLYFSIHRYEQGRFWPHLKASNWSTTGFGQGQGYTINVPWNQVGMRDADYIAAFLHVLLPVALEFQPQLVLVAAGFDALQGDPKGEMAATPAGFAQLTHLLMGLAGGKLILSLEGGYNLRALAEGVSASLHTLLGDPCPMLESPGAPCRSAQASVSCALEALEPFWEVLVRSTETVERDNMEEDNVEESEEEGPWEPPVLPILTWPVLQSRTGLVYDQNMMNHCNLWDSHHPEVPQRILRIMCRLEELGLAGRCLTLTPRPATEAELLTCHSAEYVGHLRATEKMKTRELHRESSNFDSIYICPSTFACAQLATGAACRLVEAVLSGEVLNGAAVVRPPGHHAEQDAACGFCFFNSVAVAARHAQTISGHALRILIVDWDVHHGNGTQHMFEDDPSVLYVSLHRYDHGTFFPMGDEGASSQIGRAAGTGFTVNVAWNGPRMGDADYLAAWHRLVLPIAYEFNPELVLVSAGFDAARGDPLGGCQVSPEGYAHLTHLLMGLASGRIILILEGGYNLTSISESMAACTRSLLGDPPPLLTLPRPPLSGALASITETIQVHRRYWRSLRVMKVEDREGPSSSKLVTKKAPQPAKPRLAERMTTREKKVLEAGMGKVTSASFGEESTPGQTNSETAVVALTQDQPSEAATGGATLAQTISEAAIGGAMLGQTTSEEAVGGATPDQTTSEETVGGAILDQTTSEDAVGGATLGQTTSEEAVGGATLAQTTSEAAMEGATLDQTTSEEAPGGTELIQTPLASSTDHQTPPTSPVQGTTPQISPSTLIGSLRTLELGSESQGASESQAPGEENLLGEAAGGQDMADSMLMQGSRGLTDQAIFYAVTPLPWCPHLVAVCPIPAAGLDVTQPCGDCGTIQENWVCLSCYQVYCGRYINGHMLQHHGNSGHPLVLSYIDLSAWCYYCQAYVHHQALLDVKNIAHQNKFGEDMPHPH
Description: Competitive inhibition of HDAC6 using KI-104 as substrate by fluorescence assay

Histone deacetylase 4 = Histone deacetylase 4 (Homo sapiens, UniProt P56524)
Description: Competitive inhibition of HDAC4 using KI-104 as substrate by fluorescence assay

Mus musculus [6] = test: Toxicity in athymic nu/nu Harlan mouse xenografted with human HCT116 cells assessed as mouse survival at 50 mg/kg, po QD for 21 days measured on day 22; type: organism-based, HCT-116; parameters: dose 50 mg/kg, route oral; conditions: in vivo, 504 h
Mus musculus [7] = test: Toxicity in athymic nu/nu Harlan mouse xenografted with human HCT116 cells assessed as mouse survival at 100 mg/kg, po QD for 21 days measured on day 22; type: organism-based, HCT-116; parameters: dose 100 mg/kg, route oral; conditions: in vivo, 504 h
Mus musculus [8] = test: Toxicity in athymic nu/nu Harlan mouse xenografted with human HCT116 cells assessed as body weight loss at 200 mg/kg, po QD for 21 days measured on day 19; type: organism-based, HCT-116; parameters: dose 200 mg/kg, route oral; conditions: in vivo, 504 h
[9] = as §1; type: ADME, Microsome; conditions: liver microsomes
HCT-116 [10] = test: Antitumor activity against human HCT116 cells xenografted in athymic nu/nu Harlan mouse assessed as tumor growth inhibition at 100 mg/kg, po qd for 21 days measured on day 22; type: functional; conditions: read-out: TGI
HCT-116 [11] = test: Antitumor activity against human HCT116 cells xenografted in athymic nu/nu Harlan mouse assessed as tumor growth inhibition at 200 mg/kg, po qd for 21 days measured on day 22; type: functional; conditions: read-out: TGI
[12] = Kinetic solubility of the compound at pH 7 with […] DMSO; type: physicochemical; conditions: buffer, read-out: Kinetic_solubility
[13] = Half life in rat liver microsomes; type: ADME, Microsome
Mus musculus [14] = test: Toxicity in athymic nu/nu Harlan mouse xenografted with human HCT116 cells assessed as body weight loss at 100 mg/kg, po QD for 21 days measured on day 8; type: organism-based, HCT-116; parameters: dose 100 mg/kg, route oral; conditions: in vivo, 504 h
HCT-116 [15] = test: Antitumor activity against human HCT116 cells xenografted in athymic nu/nu Harlan mouse assessed as tumor growth inhibition at 50 mg/kg, po qd for 21 days measured on day 22; type: functional; conditions: read-out: TGI
[16] = Half life in dog liver microsomes; type: ADME, Canis lupus familiaris, Microsome
HCT-116 [17] = test: Antiproliferative activity against human HCT116 cells after 96 hrs by celltiter 96 assay; type: functional, cell-based; conditions: HCT-116, 96 h
Histone deacetylase 8 = target: T5, Histone deacetylase 8 (Homo sapiens, UniProt Q9BY41)
T5 sequence (Q9BY41 whole entry): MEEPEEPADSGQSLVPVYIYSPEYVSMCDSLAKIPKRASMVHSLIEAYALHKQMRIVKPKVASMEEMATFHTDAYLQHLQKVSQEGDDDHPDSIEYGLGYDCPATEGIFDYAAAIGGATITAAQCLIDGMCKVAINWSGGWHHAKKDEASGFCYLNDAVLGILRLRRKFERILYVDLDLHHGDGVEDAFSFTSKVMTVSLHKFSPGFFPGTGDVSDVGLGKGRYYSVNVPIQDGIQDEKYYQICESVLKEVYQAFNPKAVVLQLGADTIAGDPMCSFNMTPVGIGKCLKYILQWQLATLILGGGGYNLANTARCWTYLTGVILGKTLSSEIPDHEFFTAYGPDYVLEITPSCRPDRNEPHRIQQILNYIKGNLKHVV
Description: Competitive inhibition of HDAC8 using KI-104 as substrate by fluorescence assay

Histone deacetylase 7 = Histone deacetylase 7 (Homo sapiens, UniProt Q8WUI4)
Description: Competitive inhibition of HDAC7 using KI-104 as substrate by fluorescence assay

A2780 = test: Antiproliferative activity against human A2780 cells after 96 hrs by celltiter 96 assay; type: functional, cell-based; conditions: A2780, 96 h
PC-3 = test: Antiproliferative activity against human PC3 cells after 96 hrs by celltiter 96 assay; type: functional, cell-based; conditions: PC-3, 96 h
Mus musculus [18] = test: Toxicity in nude BALB/c mouse xenografted with human HCT116 cells assessed as mouse survival at 200 mg/kg, po QD for 21 days measured on day 22; type: organism-based, HCT-116; parameters: dose 200 mg/kg, route oral; conditions: in vivo, 504 h
Mus musculus [19] = test: Toxicity in athymic nu/nu Harlan mouse xenografted with human HCT116 cells assessed as mouse survival at 200 mg/kg, po QD for 21 days measured on day 22; type: organism-based, HCT-116; parameters: dose 200 mg/kg, route oral; conditions: in vivo, 504 h
Mus musculus [20] = test: Toxicity in athymic nu/nu Harlan mouse xenografted with human HCT116 cells assessed as body weight loss at 300 mg/kg, po QD for 21 days measured on day 19; type: organism-based, HCT-116; parameters: dose 300 mg/kg, route oral; conditions: in vivo, 504 h
Mus musculus [21] = test: Toxicity in athymic nu/nu Harlan mouse xenografted with human HCT116 cells assessed as body weight loss at 200 mg/kg, po QD for 21 days measured on day 8; type: organism-based, HCT-116; parameters: dose 200 mg/kg, route oral; conditions: in vivo, 504 h
[22] = Oral bioavailability in nude BALB/c mouse at 50 mg/kg; type: ADME, organism-based; conditions: in vivo
Mus musculus [23] = test: Toxicity in nude BALB/c mouse xenografted with human HCT116 cells assessed as body weight loss at 200 mg/kg, po QD for 21 days measured on day 19; type: organism-based, HCT-116; parameters: dose 200 mg/kg, route oral; conditions: in vivo, 504 h
Mus musculus [24] = test: Toxicity in nude BALB/c mouse xenografted with human A2780 cells assessed as maximum body weight loss at 200 mg/kg, po QD for 21 days measured on day 13; type: organism-based; parameters: dose 200 mg/kg, route oral; conditions: in vivo, 504 h

Histone deacetylase 9, sequence (Q9UKV0 whole entry): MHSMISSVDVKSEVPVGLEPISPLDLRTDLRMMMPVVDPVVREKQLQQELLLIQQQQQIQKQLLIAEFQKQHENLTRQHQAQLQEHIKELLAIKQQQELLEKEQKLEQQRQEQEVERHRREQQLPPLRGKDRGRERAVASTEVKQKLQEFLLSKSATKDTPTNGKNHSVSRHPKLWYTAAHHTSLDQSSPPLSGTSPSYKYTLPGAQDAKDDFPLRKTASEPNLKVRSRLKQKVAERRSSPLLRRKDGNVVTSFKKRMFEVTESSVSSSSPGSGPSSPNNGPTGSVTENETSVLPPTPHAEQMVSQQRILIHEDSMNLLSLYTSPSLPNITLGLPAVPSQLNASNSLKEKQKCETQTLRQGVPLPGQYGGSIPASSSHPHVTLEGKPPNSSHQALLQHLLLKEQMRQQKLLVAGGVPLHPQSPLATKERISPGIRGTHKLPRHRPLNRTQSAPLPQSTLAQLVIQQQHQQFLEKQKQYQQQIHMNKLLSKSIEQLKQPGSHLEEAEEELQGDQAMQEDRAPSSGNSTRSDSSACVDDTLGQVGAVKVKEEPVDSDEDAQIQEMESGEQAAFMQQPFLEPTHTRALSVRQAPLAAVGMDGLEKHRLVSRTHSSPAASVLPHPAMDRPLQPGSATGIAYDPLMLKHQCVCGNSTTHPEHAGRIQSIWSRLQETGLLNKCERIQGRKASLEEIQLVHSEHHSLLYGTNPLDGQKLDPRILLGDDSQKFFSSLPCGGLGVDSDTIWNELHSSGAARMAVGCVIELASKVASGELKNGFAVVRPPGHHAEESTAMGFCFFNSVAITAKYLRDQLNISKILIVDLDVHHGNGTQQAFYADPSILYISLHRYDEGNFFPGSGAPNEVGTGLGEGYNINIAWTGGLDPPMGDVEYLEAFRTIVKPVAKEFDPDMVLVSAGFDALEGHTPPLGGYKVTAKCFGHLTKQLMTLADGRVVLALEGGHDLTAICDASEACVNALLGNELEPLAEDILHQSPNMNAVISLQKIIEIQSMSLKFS
Histone deacetylase 2, sequence (Q92769 whole entry): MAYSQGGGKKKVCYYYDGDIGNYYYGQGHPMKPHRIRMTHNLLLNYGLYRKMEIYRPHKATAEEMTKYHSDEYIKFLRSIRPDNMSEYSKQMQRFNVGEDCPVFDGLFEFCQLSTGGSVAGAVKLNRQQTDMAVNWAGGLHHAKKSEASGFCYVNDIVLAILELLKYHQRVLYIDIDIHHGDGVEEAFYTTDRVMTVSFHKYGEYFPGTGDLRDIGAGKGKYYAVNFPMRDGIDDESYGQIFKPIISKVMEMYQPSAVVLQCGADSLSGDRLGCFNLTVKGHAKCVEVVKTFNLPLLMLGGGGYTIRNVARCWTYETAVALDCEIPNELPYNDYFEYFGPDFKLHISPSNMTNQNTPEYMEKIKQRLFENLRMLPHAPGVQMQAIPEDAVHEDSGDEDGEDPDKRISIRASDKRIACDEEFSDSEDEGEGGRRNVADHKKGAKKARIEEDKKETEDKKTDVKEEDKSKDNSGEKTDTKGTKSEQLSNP
Histone deacetylase 5, sequence (Q9UQL6 whole entry): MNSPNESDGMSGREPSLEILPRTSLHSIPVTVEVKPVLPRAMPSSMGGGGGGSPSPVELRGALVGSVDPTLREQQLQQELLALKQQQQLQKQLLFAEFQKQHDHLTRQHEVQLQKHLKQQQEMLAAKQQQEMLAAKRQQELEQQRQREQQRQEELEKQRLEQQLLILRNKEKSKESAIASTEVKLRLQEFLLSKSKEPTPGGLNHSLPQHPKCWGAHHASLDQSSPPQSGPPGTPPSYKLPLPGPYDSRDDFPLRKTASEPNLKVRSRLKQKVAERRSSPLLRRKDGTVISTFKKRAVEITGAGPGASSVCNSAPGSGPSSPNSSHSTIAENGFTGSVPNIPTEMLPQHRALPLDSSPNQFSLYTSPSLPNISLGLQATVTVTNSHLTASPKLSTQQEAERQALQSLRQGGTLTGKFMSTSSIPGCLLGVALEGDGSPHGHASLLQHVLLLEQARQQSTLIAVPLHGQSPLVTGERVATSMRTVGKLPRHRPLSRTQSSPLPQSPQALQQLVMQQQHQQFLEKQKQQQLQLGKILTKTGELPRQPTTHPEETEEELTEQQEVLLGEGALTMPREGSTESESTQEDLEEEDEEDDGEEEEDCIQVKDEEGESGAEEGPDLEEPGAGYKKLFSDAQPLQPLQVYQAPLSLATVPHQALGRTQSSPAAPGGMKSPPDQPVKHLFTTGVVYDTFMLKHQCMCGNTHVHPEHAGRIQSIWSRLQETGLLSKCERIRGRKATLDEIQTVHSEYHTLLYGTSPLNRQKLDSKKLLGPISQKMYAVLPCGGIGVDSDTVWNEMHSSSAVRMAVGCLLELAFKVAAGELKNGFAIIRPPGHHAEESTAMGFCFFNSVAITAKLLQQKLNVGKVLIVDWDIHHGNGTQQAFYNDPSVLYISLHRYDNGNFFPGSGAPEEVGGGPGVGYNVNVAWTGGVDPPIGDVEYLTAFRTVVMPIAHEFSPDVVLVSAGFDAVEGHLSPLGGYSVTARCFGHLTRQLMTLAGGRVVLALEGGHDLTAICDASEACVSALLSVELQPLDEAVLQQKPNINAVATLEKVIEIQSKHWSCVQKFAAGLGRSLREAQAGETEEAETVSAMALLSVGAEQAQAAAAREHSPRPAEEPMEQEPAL
Histone deacetylase 3, sequence (O15379 whole entry): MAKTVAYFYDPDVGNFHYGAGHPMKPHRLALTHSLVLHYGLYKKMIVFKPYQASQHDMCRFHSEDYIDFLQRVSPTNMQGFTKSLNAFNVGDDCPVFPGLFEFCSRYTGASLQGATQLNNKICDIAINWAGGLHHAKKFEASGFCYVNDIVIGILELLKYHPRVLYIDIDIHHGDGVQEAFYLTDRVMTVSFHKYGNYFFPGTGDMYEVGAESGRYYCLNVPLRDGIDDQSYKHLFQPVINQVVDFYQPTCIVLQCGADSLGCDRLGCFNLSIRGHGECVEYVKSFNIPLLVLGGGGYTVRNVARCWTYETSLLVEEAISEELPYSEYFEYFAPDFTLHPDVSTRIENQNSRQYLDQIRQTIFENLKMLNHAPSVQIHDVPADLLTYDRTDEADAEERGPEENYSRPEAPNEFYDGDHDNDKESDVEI
T2 sequence (Q13547 whole entry): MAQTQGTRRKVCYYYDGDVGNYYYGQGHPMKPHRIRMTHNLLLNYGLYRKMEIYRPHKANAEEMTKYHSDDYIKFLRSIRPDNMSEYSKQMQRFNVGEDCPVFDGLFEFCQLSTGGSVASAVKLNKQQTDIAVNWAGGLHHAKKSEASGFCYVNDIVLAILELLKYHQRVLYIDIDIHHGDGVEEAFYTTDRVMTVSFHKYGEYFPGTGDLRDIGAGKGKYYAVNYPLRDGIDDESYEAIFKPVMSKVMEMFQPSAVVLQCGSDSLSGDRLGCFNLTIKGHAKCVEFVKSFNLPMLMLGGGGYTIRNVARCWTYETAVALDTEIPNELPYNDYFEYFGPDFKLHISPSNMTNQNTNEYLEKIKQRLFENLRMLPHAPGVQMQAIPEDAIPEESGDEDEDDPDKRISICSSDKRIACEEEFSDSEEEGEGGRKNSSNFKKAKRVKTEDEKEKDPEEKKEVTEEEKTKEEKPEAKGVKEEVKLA
Histone deacetylase 4, sequence (P56524 whole entry): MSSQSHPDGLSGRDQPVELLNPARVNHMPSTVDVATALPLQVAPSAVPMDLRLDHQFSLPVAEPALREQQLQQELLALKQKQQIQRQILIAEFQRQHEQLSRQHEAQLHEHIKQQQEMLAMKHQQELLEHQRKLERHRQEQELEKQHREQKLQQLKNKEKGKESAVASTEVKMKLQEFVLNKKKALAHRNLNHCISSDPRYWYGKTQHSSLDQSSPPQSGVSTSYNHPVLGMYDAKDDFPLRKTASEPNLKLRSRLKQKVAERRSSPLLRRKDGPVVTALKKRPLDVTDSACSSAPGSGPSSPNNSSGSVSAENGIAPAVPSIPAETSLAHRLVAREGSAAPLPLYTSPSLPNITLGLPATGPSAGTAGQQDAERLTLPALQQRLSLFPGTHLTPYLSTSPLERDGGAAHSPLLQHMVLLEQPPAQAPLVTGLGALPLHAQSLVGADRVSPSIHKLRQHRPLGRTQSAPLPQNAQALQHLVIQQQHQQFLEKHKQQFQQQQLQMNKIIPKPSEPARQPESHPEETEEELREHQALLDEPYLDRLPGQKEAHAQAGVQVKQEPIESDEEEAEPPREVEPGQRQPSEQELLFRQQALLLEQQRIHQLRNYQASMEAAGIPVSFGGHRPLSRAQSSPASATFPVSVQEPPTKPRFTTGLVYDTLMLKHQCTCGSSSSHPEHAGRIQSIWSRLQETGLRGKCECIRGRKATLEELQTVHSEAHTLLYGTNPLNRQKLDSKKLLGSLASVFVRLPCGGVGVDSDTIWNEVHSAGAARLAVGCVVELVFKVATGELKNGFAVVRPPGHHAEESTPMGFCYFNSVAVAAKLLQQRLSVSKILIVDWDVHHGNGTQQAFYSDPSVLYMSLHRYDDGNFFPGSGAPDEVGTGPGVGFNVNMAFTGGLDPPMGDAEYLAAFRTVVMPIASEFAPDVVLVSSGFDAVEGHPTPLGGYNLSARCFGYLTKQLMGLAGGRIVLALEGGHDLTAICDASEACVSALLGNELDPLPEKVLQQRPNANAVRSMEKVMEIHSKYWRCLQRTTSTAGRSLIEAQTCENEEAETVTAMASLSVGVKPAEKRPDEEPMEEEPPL

| SMILES | Ki [1] | Ki (Histone deacetylase 2) | Ki (Histone deacetylase 3) | Ki (Histone deacetylase 1 [2]) | IC50 (COLO 205) | Ki (Histone deacetylase 5) | Ki (Histone deacetylase 9) | t1/2 (Liver) | IC50 (Histone deacetylase 1 [3]) | Ki (Histone deacetylase 11) | half-life [4] | Ki [5] | Ki (Histone deacetylase 4) | Activity (Mus musculus [8]) | half-life [9] | solubility kinetic [12] | half-life [13] | half-life [16] | other results |
| --- | --- | --- | --- | --- | --- | --- | --- | --- | --- | --- | --- | --- | --- | --- | --- | --- | --- | --- | --- |
| O=C(/C=C/c1ccc2c(c1)nc(CCc1ccccc1)n2CCN1CCCCC1)NO | 23 nM | 39 nM | 11 nM | 12 nM | 87 nM | 18 nM | 24 nM | 35 min | 23 nM | 14 nM | 90 min | 27 nM | 8.7 nM | – | – | – | – | – | – |
| CCCCc1nc2cc(/C=C/C(=O)NO)ccc2n1CCNC(C)C.Cl.Cl | – | – | – | – | – | – | – | – | – | – | > 60 min | – | – | 7.9% | 36 min | > 200 µM | 3.3 min | > 60 min | Activity (Mus musculus [6]): Non-toxic; Activity (Mus musculus [7]): Non-toxic; inhibition in vivo at 100 mg/kg (HCT-116 [10]): 60%; inhibition in vivo at 200 mg/kg (HCT-116 [11]): 90%; Activity (Mus musculus [14]): 5%; inhibition in vivo at 50 mg/kg (HCT-116 [15]): 19% |
| CN(C)CC(C)(C)Cn1c(CCc2ccccc2)nc2cc(/C=C/C(=O)NO)ccc21 | 23 nM | 39 nM | 11 nM | 15 nM | 110 nM | 16 nM | 21 nM | 17 min | 42 nM | 16 nM | 60 min | 23 nM | 10 nM | – | – | – | – | – | – |
| CCCCCCc1nc2cc(/C=C/C(=O)NO)ccc2n1CCNC(C)C | 29 nM | 18 nM | 15 nM | 20 nM | 170 nM | 6.6 nM | 16 nM | – | 36 nM | 14 nM | – | 348 nM | 6.6 nM | – | – | – | – | – | IC50 (HCT-116 [17]): 210 nM; Ki (Histone deacetylase 8): 57 nM; Ki (Histone deacetylase 7): 41 nM; IC50 (A2780): 200 nM; IC50 (PC-3): 170 nM |
| O=C(CCCCCCC(=O)Nc1ccccc1)NO [VORINOSTAT] | – | – | – | – | 2120 nM | – | – | – | – | – | > 60 min | – | – | 4.6% | > 60 min | > 200 µM | > 60 min | > 60 min | Activity (Mus musculus [18]): Non-toxic; Activity (Mus musculus [19]): Non-toxic; Activity (Mus musculus [20]): 5.5%; Activity (Mus musculus [21]): 8.9%; bioavailability [22]: 8.3%; Activity (Mus musculus [23]): 1.9%; Activity (Mus musculus [24]): 9.3% |
